Laboratory results from patent US9604975B2, “Indolyl-pyridone derivatives having checkpoint kinase 1 inhibitory activity” (Vernalis (R&D) Ltd., priority 2009, dated 2017).

These molecules were tested against T1, CHK1 (Homo sapiens, UniProt O14757) (assay: CHK1 Enzyme Assay (phosphorylation of Chktide peptide, 33P-ATP filter assay)). Conditions: 12.5 nM His-CHK1, 0.01 mM ATP, 40 minutes at 30° C.; read-out: CHK1 Enzyme Activity (IC50 range).
T1 construct: His; purchased Invitrogen
T1 sequence (O14757 1-476): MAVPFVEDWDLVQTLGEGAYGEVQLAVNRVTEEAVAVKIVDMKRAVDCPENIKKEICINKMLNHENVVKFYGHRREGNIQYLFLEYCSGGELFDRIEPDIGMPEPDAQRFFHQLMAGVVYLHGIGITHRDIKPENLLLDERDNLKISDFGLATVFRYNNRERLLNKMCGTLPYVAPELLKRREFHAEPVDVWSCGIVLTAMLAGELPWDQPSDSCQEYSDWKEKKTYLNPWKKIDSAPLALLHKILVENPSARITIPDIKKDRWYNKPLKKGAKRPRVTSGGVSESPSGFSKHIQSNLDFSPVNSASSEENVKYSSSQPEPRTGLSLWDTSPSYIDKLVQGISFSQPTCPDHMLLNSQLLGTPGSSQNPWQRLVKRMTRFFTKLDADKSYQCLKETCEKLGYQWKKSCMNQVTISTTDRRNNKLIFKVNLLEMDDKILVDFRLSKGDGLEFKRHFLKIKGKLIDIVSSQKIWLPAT
Format: biochemical
Description: Assays for the CHK1 kinase activity were carried out by monitoring the phosphorylation of a synthetic peptide Chktide with the amino acid sequence, […]. The assay mixture containing the inhibitor and CHK1 enzyme was mixed together in a microtiter plate in a final volume of 50 μl and incubated for 40 minutes at 30° C.
The assay mixture contained 0.01 mM unlabeled ATP, 0.5 μCi ^33P-γ-ATP, 14.8 μM Chktide, 0.1 mg/mL BSA, 50 mM Hepes-NaOH pH 7.5 and 12.5 nM His-CHK1 (Invitrogen) enzyme. The reaction was stopped by adding 50 μL of 50 mM phosphoric acid. 90 μL of the mixture was transferred to a pre-wetted 96-well multi-screen MAPHNOB filtration plate (Millipore) and filtered on a vacuum manifold. The filter plate was washed with 3 successive additions of 200 μl 50 mM phosphoric acid and then with 100 μL methanol. The filtration plate was dried for 10 min at 65° C., scintillant added and phosphorylated peptide quantified in a scintillation counter (Trilux, PerkinElmer).
For Cc1[nH]c(=O)c(-c2cc3ccccc3[nH]2)cc1C(=O)Nc1cnn(Cc2cccc(F)c2)c1 [Example 18, 5-(1H-Indol-2-yl)-2-methyl-6-oxo-1,6-dihydro-pyridine-3-carboxylic acid [1-(3-fluoro-benzyl)-1H-pyrazol-4-yl]-amide], the IC50 was 500 to 1500 nM.
With CN1CCN(C(=O)c2ccc3[nH]c(-c4cc(C(=O)Nc5cnn(Cc6ccccc6)c5)c[nH]c4=O)cc3c2)CC1 [Example 15, 5-[5-(4-Methyl-piperazine-1-carbonyl)-1H-indol-2-yl]-6-oxo-1,6-dihydro-pyridine-3-carboxylic acid (1-benzyl-1H-pyrazol-4-yl)-amide] the IC50 was under 100 nM.
O=C(Nc1c[nH]c(=O)c(-c2cc3cc(CN4CCCC4)ccc3[nH]2)c1)c1cnn(Cc2ccc(Cl)cc2)c1 [Example 55, 1-(4-Chloro-benzyl)-1H-pyrazole-4-carboxylic acid [6-oxo-5-(5-pyrrolidin-1-ylmethyl-1H-indol-2-yl)-1,6-dihydro-pyridin-3-yl]-amide] was tested, and the IC50 was under 100 nM.
In the case of CCc1cccc(Cn2cc(C(=O)Nc3c[nH]c(=O)c(-c4cc5cc(OCCCN(CC)CC)ccc5[nH]4)c3)cn2)c1 [Example 136, 1-(3-Ethyl-benzyl)-1H-pyrazole-4-carboxylic acid {5-[5-(3-diethylamino-propoxy)-1H-indol-2-yl]-6-oxo-1,6-dihydro-pyridin-3-yl}-amide], the IC50 is reported as under 100 nM.
O=C(Nc1cnn(Cc2cc(F)cc(F)c2)c1)c1c[nH]c(=O)c(-c2cc3ccccc3[nH]2)c1 [Example 13, 5-(1H-Indol-2-yl)-6-oxo-1,6-dihydro-pyridine-3-carboxylic acid [1-(3,5-difluoro-benzyl)-1H-pyrazol-4-yl]-amide] was tested, and the IC50 was under 100 nM.
For O=C(Nc1cnn(Cc2ccc(F)c(F)c2)c1)c1c[nH]c(=O)c(-c2cc3cc(CN4CCOCC4)ccc3[nH]2)c1 [Example 99, 5-(5-Morpholin-4-ylmethyl-1H-indol-2-yl)-6-oxo-1,6-dihydro-pyridine-3-carboxylic acid [1-(3,4-difluoro-benzyl)-1H-pyrazol-4-yl]-amide], the IC50 was under 100 nM.
Work on Cc1ccc(Cn2cc(C(=O)Nc3c[nH]c(=O)c(-c4cc5cc(CN(C)CCO)ccc5[nH]4)c3)cn2)cc1 [Example 43, 1-(4-Methyl-benzyl)-1H-pyrazole-4-carboxylic acid [5-(5-{[(2-hydroxy-ethyl)-methyl-amino]-methyl}-1H-indol-2-yl)-6-oxo-1,6-dihydro-pyridin-3-yl]-amide] yielded an IC50 of under 100 nM.
O=C(Nc1cnn(Cc2ccncc2)c1)c1c[nH]c(=O)c(-c2cc3ccccc3[nH]2)c1 [Example 36, 5-(1H-Indol-2-yl)-6-oxo-1,6-dihydro-pyridine-3-carboxylic acid (1-pyridin-4-ylmethyl-1H-pyrazol-4-yl)-amide] showed an IC50 of 100 to 500 nM.
Work on COCCN(C)Cc1ccc2[nH]c(-c3cc(NC(=O)c4cnn(Cc5ccccc5)c4)c[nH]c3=O)cc2c1 [Example 79, 1-Benzyl-1H-pyrazole-4-carboxylic acid [5-(5-{1(2-methoxy-ethyl)-methyl-aminol-methyl}-1H-indol-2-yl)-6-oxo-1,6-dihydro-pyridin-3-yl]-amide] yielded an IC50 of under 100 nM.
O=C(Nc1c[nH]c(=O)c(-c2cc3cc(CN4CCOCC4)ccc3[nH]2)c1)c1cnn(Cc2ccccc2)c1 [Example 51, 1-Benzyl-1H-pyrazole-4-carboxylic acid [5-(5-morpholin-4-ylmethyl-1H-indol-2-yl)-6-oxo-1,6-dihydro-pyridin-3-yl]-amide] showed an IC50 of under 100 nM.
Molecule CC(C)c1ccc(Cn2cc(C(=O)Nc3c[nH]c(=O)c(-c4cc5cc(OCCCN(C)C)ccc5[nH]4)c3)cn2)cc1 [Example 157, 1-(4-Isopropylbenzyl)-1H-pyrazole-4-carboxylic acid {5-[5-(3-dimethylaminopropoxy)-1H-indol-2-yl)-6-oxo-1,6-dihydropyridin-3-yl}-amide] has an IC50 of under 100 nM.
Molecule CCN(CCO)Cc1ccc2[nH]c(-c3cc(NC(=O)c4cnn(Cc5ccccc5)c4)c[nH]c3=O)cc2c1 [Example 56, 1-Benzyl-1H-pyrazole-4-carboxylic acid [5-(5-{[ethyl-(2-hydroxy-ethyl)-amino]-methyl}-1H-indol-2-yl)-6-oxo-1,6-dihydro-pyridin-3-yl]-amide] has an IC50 of under 100 nM.
